Data on 4 compounds can be found in PubChem BioAssay AID1259407 (Chemical Carcinogenesis Research Information System (CCRIS), 2018).

Active and inactive are the calls of the source. How the calls were made is not given here.

In this series the test system is CCRIS mutagenicity, Ames/micronucleus/aberration tests. In words: CCRIS mutagenicity studies.
[1] abbreviates: Test System: AMES SALMONELLA TYPHIMURIUM, Strain/Indicator: TA98, Metabolic Activation: NONE, Method: PREINCUBATION
Where [2] appears, read: Test System: AMES SALMONELLA TYPHIMURIUM, Strain/Indicator: TA100, Metabolic Activation: NONE, Method: PREINCUBATION

On to `O[C@@H]1[C@@H]2O[C@@H]2c2c(ccc3cc4c(ccc5ccccc54)nc23)[C@H]1O`, for which the mutagenic call was “active; positive” under setting [1]; “active; positive” under setting [2]; “active; positive” (Test System: CHINESE HAMSTER V-79, Strain/Indicator: V-79/8-AZAGUANINE, Metabolic Activation: NONE).
`O=C(OOC(=O)c1ccccc1)c1ccccc1`: the mutagenic call is, setting by setting: (Test System: AMES SALMONELLA TYPHIMURIUM, Strain/Indicator: TA97, Metabolic Activation: HAMSTER, LIVER, S-9, AROCLOR 1254 (10 OR 30%), Method: PREINCUBATION) “inactive; negative”; (Test System: AMES SALMONELLA TYPHIMURIUM, Strain/Indicator: TA97, Metabolic Activation: NONE, Method: PREINCUBATION) “inactive; negative”; (Test System: AMES SALMONELLA TYPHIMURIUM, Strain/Indicator: TA97, Metabolic Activation: RAT, LIVER, S-9, AROCLOR 1254 (10 OR 30%), Method: PREINCUBATION) “inactive; negative”; (Test System: AMES SALMONELLA TYPHIMURIUM, Strain/Indicator: TA97, Metabolic Activation: RAT, LIVER, S-9, AROCLOR 1254, Method: PREINCUBATION) “inactive; negative”; (Test System: AMES SALMONELLA TYPHIMURIUM, Strain/Indicator: TA97A, Metabolic Activation: NONE, Method: PREINCUBATION) “inactive; negative”; (Test System: AMES SALMONELLA TYPHIMURIUM, Strain/Indicator: TA97A, Metabolic Activation: RAT LIVER S-9, AROCLOR 1254, Method: PREINCUBATION) “inactive; negative”. The mutagenic call is, setting by setting: (Test System: AMES SALMONELLA TYPHIMURIUM, Strain/Indicator: TA98, Metabolic Activation: HAMSTER, LIVER, S-9, AROCLOR 1254 (10 OR 30%), Method: PREINCUBATION) “inactive; negative”; under setting [1], “inactive; negative”; (Test System: AMES SALMONELLA TYPHIMURIUM, Strain/Indicator: TA98, Metabolic Activation: RAT LIVER S-9, PHENOBARBITAL AND BETA-NAPHTHOFLAVONE, Method: PREINCUBATION) “inactive; negative”; (Test System: AMES SALMONELLA TYPHIMURIUM, Strain/Indicator: TA98, Metabolic Activation: RAT, LIVER, S-9, AROCLOR 1254 (10 OR 30%), Method: PREINCUBATION) “inactive; negative”; (Test System: AMES SALMONELLA TYPHIMURIUM, Strain/Indicator: TA100, Metabolic Activation: HAMSTER, LIVER, S-9, AROCLOR 1254 (10 OR 30%), Method: PREINCUBATION) “inactive; negative”; under setting [2], “inactive; negative”. The mutagenic call was “inactive; negative” (Test System: AMES SALMONELLA TYPHIMURIUM, Strain/Indicator: TA100, Metabolic Activation: RAT LIVER S-9, AROCLOR 1254, Method: PREINCUBATION); “inactive; negative” (Test System: AMES SALMONELLA TYPHIMURIUM, Strain/Indicator: TA100, Metabolic Activation: RAT LIVER S-9, PHENOBARBITAL AND BETA-NAPHTHOFLAVONE, Method: PREINCUBATION); “inactive; negative” (Test System: AMES SALMONELLA TYPHIMURIUM, Strain/Indicator: TA100, Metabolic Activation: RAT, LIVER, S-9, AROCLOR 1254 (10 OR 30%), Method: PREINCUBATION); “inactive; negative” (Test System: AMES SALMONELLA TYPHIMURIUM, Strain/Indicator: TA102, Metabolic Activation: NONE, Method: PREINCUBATION); “inactive; negative” (Test System: AMES SALMONELLA TYPHIMURIUM, Strain/Indicator: TA102, Metabolic Activation: RAT LIVER S-9, AROCLOR 1254, Method: PREINCUBATION); “inactive; negative” (Test System: AMES SALMONELLA TYPHIMURIUM, Strain/Indicator: TA102, Metabolic Activation: RAT, LIVER, S-9, AROCLOR 1254, Method: PREINCUBATION). Further, the mutagenic call reads like this: (Test System: AMES SALMONELLA TYPHIMURIUM, Strain/Indicator: TA104, Metabolic Activation: NONE, Method: PREINCUBATION) “inactive; negative”; (Test System: AMES SALMONELLA TYPHIMURIUM, Strain/Indicator: TA104, Metabolic Activation: RAT LIVER S-9, AROCLOR 1254, Method: PREINCUBATION) “inactive; negative”; (Test System: AMES SALMONELLA TYPHIMURIUM, Strain/Indicator: TA1535, Metabolic Activation: HAMSTER, LIVER, S-9, AROCLOR 1254 (10 OR 30%), Method: PREINCUBATION) “inactive; negative”; (Test System: AMES SALMONELLA TYPHIMURIUM, Strain/Indicator: TA1535, Metabolic Activation: NONE, Method: PREINCUBATION) “inactive; negative”; (Test System: AMES SALMONELLA TYPHIMURIUM, Strain/Indicator: TA1535, Metabolic Activation: RAT LIVER S-9, PHENOBARBITAL AND BETA-NAPHTHOFLAVONE, Method: PREINCUBATION) “inactive; negative”; (Test System: AMES SALMONELLA TYPHIMURIUM, Strain/Indicator: TA1535, Metabolic Activation: RAT, LIVER, S-9, AROCLOR 1254 (10 OR 30%), Method: PREINCUBATION) “inactive; negative”. The mutagenic call (Test System: AMES SALMONELLA TYPHIMURIUM, Strain/Indicator: TA1537, Metabolic Activation: NONE, Method: PREINCUBATION) was “inactive; negative”; the mutagenic call (Test System: AMES SALMONELLA TYPHIMURIUM, Strain/Indicator: TA1537, Metabolic Activation: RAT LIVER S-9, PHENOBARBITAL AND BETA-NAPHTHOFLAVONE, Method: PREINCUBATION) is “inactive; negative”; the mutagenic call (Test System: E.COLI, Strain/Indicator: WP2UVRA/PKM101, Metabolic Activation: NONE, Method: PREINCUBATION) is “inactive; negative”; the mutagenic call (Test System: E.COLI, Strain/Indicator: WP2UVRA/PKM101, Metabolic Activation: RAT LIVER S-9, PHENOBARBITAL AND BETA-NAPHTHOFLAVONE, Method: PREINCUBATION) is “inactive; negative”.
As to `O=[N+]([O-])c1ccc(I)c([N+](=O)[O-])c1`, the mutagenic call reads like this: (Test System: AMES SALMONELLA TYPHIMURIUM, Strain/Indicator: TA98(1,8-DNP6), Metabolic Activation: NONE, Method: PREINCUBATION) “active; positive”; (Test System: AMES SALMONELLA TYPHIMURIUM, Strain/Indicator: TA98(NR), Metabolic Activation: NONE, Method: PREINCUBATION) “active; positive”; under setting [1], “active; positive”.
Consider `Cc1ccc2nsc(NC(=O)C(Cl)Cl)c2c1`, for which the mutagenic call runs as follows: (Test System: AMES SALMONELLA TYPHIMURIUM, Strain/Indicator: TA98, Metabolic Activation: NONE, Method: STANDARD PLATE) “active; positive”; (Test System: AMES SALMONELLA TYPHIMURIUM, Strain/Indicator: TA98, Metabolic Activation: S-9, Method: STANDARD PLATE) “active; positive”; (Test System: AMES SALMONELLA TYPHIMURIUM, Strain/Indicator: TA100, Metabolic Activation: NONE, Method: STANDARD PLATE) “active; positive”; (Test System: AMES SALMONELLA TYPHIMURIUM, Strain/Indicator: TA100, Metabolic Activation: S-9, Method: STANDARD PLATE) “active; positive”; (Test System: AMES SALMONELLA TYPHIMURIUM, Strain/Indicator: TA1535, Metabolic Activation: NONE, Method: STANDARD PLATE) “inactive; negative”; (Test System: AMES SALMONELLA TYPHIMURIUM, Strain/Indicator: TA1535, Metabolic Activation: S-9, Method: STANDARD PLATE) “inactive; negative”. Further, the mutagenic call is, setting by setting: (Test System: AMES SALMONELLA TYPHIMURIUM, Strain/Indicator: TA1537, Metabolic Activation: NONE, Method: STANDARD PLATE) “active; positive”; (Test System: AMES SALMONELLA TYPHIMURIUM, Strain/Indicator: TA1537, Metabolic Activation: S-9, Method: STANDARD PLATE) “active; positive”.
